# Results reported in US11298318B2, “One-step method for production of ultra-small lipid structures” (FOUNTAIN TECHNOLOGIES INTERNATIONAL, LLC, priority 2015, dated 2022).
# Assay: Pharmacokinetics of EGCG after oral gavage to rats
# Assay type: in vivo
# Conditions: 100 mg/kg
# Protocol: Groups of 10 200-g male rats were administered EGCG by oral gavage, in the form of the USLS prepared as in Example 3 (2.1 ml; 100 mg/kg body weight) or as an identical preparation of EGCG without USLS. Blood samples were collected at 5, 10, 30, 60, 120, and 480 minutes post administration. […] Within 5 minutes after oral administration, the USLS-sequestered compound produced a plasma concentration of 600 ng/ml and a peak plasma concentration of 605 ng/ml at 10 minutes post administration. The EGCG administered without sequestration in USLS produced a peak plasma concentration of only 150 ng/ml at 5 minutes post administration.
# The pharmacokinetic parameters Cmax (maximum serum concentration), Tmax (time maximum serum concentration is reached), AUC (area under the curve), and Relative Bioavailability were determined from the plasma data and are presented in Table 1, below.
smiles,measurement,setting,value
"O=C(O[C@@H]1Cc2c(O)cc(O)cc2O[C@@H]1c1cc(O)c(O)c(O)c1)c1cc(O)c(O)c(O)c1 [EGCG control, Epigallocatechin gallate]",time of peak plasma concentration post administration,,5 min
same,peak plasma concentration of EGCG,FIG. 4,150 ng/mL
same,AUC (0-240 min),Table 1,"14,261"
same,Cmax (maximum serum concentration),Table 1,116.57
same,Tmax (time maximum serum concentration is reached),Table 1,5
